Results as given in PubChem BioAssay AID588725 (The Scripps Research Institute Molecular Screening Center, 2011).
Active and inactive are the calls of the source.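 Rule for the calls: active = versus DMSO control, mean enzyme activity at or below 80% or at or above 120%; inactive = between 80% and 120% mean enzyme activity.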

Assays:
Test in all cases: kinase activity changes across 48 kinases – biochemical, 33P-ATP radiometric, Reaction Biology, powder sample, selectivity assay for KLF5 inhibitor project, late-stage follow-up (AID 588725)
[1] = biological target: Receptor tyrosine-protein kinase erbB-2 (Homo sapiens) (UniProt P04626); conditions: 48-kinase panel, 33P-ATP radiometric activity, ERBB2, at 10 µM
[2] = biological target: Mitogen-activated protein kinase 12 (Homo sapiens) (UniProt P53778); conditions: 48-kinase panel, 33P-ATP radiometric activity, P38g, at 10 µM
[3] = biological target: Receptor tyrosine-protein kinase erbB-4 (Homo sapiens) (UniProt Q15303); conditions: 48-kinase panel, 33P-ATP radiometric activity, ERBB4, at 10 µM
Chain of Receptor tyrosine-protein kinase erbB-4 (Homo sapiens) (Q15303 whole entry, looked up): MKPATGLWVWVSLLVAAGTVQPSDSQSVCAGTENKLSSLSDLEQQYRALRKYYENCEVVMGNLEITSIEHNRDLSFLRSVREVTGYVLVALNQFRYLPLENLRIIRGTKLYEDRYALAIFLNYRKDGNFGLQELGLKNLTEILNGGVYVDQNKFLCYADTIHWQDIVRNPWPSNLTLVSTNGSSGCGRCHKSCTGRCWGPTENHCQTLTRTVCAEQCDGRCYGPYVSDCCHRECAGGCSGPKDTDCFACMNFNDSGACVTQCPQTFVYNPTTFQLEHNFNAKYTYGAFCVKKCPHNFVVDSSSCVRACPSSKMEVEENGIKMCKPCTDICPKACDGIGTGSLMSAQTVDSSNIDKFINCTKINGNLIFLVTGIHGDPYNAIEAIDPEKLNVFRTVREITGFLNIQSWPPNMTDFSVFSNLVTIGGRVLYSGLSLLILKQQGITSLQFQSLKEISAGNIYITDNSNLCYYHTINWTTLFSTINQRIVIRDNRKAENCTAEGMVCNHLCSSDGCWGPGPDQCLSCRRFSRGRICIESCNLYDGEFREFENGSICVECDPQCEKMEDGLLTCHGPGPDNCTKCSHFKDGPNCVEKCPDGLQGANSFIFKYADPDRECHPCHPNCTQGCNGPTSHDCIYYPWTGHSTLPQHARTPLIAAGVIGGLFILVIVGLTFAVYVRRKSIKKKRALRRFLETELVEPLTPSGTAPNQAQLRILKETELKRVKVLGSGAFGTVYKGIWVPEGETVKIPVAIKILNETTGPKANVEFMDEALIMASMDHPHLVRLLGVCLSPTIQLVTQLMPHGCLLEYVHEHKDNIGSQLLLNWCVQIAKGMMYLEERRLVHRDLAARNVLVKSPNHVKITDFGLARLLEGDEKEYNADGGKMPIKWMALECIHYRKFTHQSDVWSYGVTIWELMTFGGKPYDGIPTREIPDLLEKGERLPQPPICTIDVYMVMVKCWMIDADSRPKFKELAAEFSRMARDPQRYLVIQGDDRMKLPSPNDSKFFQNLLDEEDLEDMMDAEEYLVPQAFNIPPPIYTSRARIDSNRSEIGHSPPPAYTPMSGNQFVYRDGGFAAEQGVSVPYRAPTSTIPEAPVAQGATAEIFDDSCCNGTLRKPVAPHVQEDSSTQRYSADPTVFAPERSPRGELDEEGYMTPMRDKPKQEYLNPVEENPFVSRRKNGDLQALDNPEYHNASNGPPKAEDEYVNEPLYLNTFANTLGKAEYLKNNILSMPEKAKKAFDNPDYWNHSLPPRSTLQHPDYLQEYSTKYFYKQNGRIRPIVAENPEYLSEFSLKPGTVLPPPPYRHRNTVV

[4] = test system: CDK5/p25; conditions: 48-kinase panel, 33P-ATP radiometric activity, at 10 µM
[5] = biological target: Serine/threonine-protein kinase B-raf (Homo sapiens) (UniProt P15056); conditions: 48-kinase panel, 33P-ATP radiometric activity, BRAF, at 10 µM
Chain of Serine/threonine-protein kinase B-raf (Homo sapiens) (P15056 whole entry, looked up): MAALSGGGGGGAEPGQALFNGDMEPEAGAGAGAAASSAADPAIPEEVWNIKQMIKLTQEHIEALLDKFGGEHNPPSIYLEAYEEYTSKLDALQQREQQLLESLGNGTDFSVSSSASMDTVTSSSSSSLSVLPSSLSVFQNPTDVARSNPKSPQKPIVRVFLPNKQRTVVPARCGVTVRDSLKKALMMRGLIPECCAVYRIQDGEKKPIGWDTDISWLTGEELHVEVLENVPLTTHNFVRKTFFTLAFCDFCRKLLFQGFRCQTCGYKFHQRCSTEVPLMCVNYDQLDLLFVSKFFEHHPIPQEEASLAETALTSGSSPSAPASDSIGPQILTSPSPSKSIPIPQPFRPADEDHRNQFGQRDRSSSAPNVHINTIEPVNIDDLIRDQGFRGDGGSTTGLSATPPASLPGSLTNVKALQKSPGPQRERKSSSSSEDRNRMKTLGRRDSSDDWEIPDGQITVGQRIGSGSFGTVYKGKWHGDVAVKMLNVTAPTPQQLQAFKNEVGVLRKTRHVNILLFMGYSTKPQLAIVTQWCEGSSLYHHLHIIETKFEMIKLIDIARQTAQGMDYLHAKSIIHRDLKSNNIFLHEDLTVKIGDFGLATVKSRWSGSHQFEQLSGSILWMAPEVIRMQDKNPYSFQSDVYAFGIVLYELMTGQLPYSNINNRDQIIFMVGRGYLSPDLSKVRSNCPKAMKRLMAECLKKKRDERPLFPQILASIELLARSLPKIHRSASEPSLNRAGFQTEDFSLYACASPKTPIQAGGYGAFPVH

[6] = biological target: Dual specificity mitogen-activated protein kinase kinase 1 (Homo sapiens) (UniProt Q02750); conditions: 48-kinase panel, 33P-ATP radiometric activity, MEK1, at 10 µM
[7] = biological target: Protein kinase C zeta type (Homo sapiens) (UniProt Q05513); conditions: 48-kinase panel, 33P-ATP radiometric activity, PKCzeta, at 10 µM
[8] = biological target: Serine/threonine-protein kinase D1 (Homo sapiens) (UniProt Q15139); conditions: 48-kinase panel, 33P-ATP radiometric activity, PKCmu, at 10 µM
Chain of Serine/threonine-protein kinase D1 (Homo sapiens) (Q15139 whole entry, looked up): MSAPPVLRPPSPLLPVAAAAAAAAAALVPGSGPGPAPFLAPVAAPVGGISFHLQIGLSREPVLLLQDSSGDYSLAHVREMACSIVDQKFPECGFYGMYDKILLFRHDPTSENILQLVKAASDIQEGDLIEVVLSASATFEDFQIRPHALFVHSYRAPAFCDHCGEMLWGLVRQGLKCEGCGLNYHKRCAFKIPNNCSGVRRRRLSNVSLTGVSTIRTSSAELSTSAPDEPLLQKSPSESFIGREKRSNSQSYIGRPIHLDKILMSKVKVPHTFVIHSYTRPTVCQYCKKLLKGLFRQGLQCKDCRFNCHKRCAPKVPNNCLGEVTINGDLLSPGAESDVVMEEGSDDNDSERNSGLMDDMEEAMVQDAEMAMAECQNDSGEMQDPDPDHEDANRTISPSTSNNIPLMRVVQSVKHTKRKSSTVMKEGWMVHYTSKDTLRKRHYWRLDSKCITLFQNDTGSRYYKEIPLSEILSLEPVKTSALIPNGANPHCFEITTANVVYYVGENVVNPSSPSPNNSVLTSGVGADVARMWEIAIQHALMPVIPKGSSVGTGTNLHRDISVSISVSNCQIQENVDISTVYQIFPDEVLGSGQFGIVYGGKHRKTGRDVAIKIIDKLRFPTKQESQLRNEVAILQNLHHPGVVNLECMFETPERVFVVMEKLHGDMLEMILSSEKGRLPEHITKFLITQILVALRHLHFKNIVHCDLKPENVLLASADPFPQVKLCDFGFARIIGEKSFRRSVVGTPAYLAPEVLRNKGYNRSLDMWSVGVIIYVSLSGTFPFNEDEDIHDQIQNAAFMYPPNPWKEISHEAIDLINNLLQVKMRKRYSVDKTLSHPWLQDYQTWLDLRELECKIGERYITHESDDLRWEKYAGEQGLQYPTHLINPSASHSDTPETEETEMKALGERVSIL

[9] = biological target: Mitogen-activated protein kinase 9 (Homo sapiens) (UniProt P45984); conditions: 48-kinase panel, 33P-ATP radiometric activity, JNK2, at 10 µM
[10] = test system: CDK5/p35; conditions: 48-kinase panel, 33P-ATP radiometric activity, at 10 µM
[11] = test system: PKCb2; conditions: 48-kinase panel, 33P-ATP radiometric activity, at 10 µM
[12] = biological target: RAC-gamma serine/threonine-protein kinase (Homo sapiens) (UniProt Q9Y243); conditions: 48-kinase panel, 33P-ATP radiometric activity, AKT3, at 10 µM
Chain of RAC-gamma serine/threonine-protein kinase (Homo sapiens) (Q9Y243 whole entry, looked up): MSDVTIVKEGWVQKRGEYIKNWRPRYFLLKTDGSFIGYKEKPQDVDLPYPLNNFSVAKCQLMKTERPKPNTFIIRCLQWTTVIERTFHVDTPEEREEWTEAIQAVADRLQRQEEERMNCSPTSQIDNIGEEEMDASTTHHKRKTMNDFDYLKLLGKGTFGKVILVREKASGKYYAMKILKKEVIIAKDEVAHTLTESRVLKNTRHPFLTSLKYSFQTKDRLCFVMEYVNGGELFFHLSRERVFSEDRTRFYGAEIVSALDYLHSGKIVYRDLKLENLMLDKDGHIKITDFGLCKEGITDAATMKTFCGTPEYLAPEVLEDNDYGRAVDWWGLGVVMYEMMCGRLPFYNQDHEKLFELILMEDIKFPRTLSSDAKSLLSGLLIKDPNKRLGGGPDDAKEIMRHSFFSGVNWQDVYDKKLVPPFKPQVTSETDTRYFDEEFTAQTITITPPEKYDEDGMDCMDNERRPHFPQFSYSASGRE

[13] = biological target: Mitogen-activated protein kinase 14 (Homo sapiens) (UniProt Q16539); conditions: 48-kinase panel, 33P-ATP radiometric activity, P38a, at 10 µM
[14] = biological target: Protein kinase C delta type (Homo sapiens) (UniProt Q05655); conditions: 48-kinase panel, 33P-ATP radiometric activity, PKCd, at 10 µM
[15] = test system: p70S6Kb; conditions: 48-kinase panel, 33P-ATP radiometric activity, at 10 µM
[16] = test system: PKCb1; conditions: 48-kinase panel, 33P-ATP radiometric activity, at 10 µM
[17] = biological target: Protein kinase C gamma type (Homo sapiens) (UniProt P05129); conditions: 48-kinase panel, 33P-ATP radiometric activity, PKCg, at 10 µM
[18] = biological target: Cyclin-dependent kinase 2 (Homo sapiens) (UniProt P24941); conditions: 48-kinase panel, 33P-ATP radiometric activity, at 10 µM
[19] = test system: MKK6; conditions: 48-kinase panel, 33P-ATP radiometric activity, at 10 µM
[20] = biological target: Mitogen-activated protein kinase 3 (Homo sapiens) (UniProt P27361); conditions: 48-kinase panel, 33P-ATP radiometric activity, ERK1, at 10 µM
[21] = test system: JAK1; conditions: 48-kinase panel, 33P-ATP radiometric activity, at 10 µM
[22] = test system: Aurora A; conditions: 48-kinase panel, 33P-ATP radiometric activity, at 10 µM
[23] = test system: PKCepsilon; conditions: 48-kinase panel, 33P-ATP radiometric activity, at 10 µM
[24] = test system: MEK2; conditions: 48-kinase panel, 33P-ATP radiometric activity, at 10 µM
[25] = biological target: Cyclin-dependent kinase 1 (Homo sapiens) (UniProt P06493); conditions: 48-kinase panel, 33P-ATP radiometric activity, at 10 µM
Chain of Cyclin-dependent kinase 1 (Homo sapiens) (P06493 whole entry, looked up): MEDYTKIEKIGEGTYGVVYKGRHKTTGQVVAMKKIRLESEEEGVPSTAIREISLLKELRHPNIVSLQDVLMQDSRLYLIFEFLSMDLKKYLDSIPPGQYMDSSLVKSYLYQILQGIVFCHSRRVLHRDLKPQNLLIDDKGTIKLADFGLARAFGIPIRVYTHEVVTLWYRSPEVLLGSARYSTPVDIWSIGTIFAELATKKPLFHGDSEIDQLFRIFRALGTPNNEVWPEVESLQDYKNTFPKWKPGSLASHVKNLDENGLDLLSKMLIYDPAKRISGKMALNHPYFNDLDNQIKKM

[26] = biological target: Glycogen synthase kinase-3 beta (Homo sapiens) (UniProt P49841); conditions: 48-kinase panel, 33P-ATP radiometric activity, GSK3b, at 10 µM
[27] = biological target: Mitogen-activated protein kinase 1 (Homo sapiens) (UniProt P28482); conditions: 48-kinase panel, 33P-ATP radiometric activity, ERK2, at 10 µM
[28] = biological target: Inhibitor of nuclear factor kappa-B kinase subunit alpha (Homo sapiens) (UniProt O15111); conditions: 48-kinase panel, 33P-ATP radiometric activity, IKKa, at 10 µM
[29] = test system: P38b; conditions: 48-kinase panel, 33P-ATP radiometric activity, at 10 µM
[30] = biological target: Protein kinase C theta type (Homo sapiens) (UniProt Q04759); conditions: 48-kinase panel, 33P-ATP radiometric activity, PKCtheta, at 10 µM
Chain of Protein kinase C theta type (Homo sapiens) (Q04759 whole entry, looked up): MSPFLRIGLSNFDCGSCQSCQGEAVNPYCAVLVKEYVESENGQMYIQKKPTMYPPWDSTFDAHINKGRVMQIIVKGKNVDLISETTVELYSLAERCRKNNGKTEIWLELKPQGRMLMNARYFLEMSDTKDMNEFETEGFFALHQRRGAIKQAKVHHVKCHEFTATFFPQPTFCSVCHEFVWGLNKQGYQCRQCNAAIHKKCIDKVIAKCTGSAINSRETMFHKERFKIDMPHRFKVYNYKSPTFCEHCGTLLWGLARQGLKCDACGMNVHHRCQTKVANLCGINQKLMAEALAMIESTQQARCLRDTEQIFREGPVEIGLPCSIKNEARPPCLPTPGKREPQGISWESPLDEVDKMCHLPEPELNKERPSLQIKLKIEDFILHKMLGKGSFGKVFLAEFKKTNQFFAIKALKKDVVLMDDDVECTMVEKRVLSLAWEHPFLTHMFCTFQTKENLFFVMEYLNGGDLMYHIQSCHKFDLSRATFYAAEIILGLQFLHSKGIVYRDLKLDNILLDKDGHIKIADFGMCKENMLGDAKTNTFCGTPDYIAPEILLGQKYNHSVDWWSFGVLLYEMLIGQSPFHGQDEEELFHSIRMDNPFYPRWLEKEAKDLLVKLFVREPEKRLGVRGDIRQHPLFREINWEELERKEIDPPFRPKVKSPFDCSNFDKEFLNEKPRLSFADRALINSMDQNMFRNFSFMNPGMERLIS

[31] = biological target: Glycogen synthase kinase-3 alpha (Homo sapiens) (UniProt P49840); conditions: 48-kinase panel, 33P-ATP radiometric activity, GSK3a, at 10 µM
[32] = biological target: Epidermal growth factor receptor (Homo sapiens) (UniProt P00533); conditions: 48-kinase panel, 33P-ATP radiometric activity, EGFR, at 10 µM
[33] = biological target: Inhibitor of nuclear factor kappa-B kinase subunit beta (Homo sapiens) (UniProt O14920); conditions: 48-kinase panel, 33P-ATP radiometric activity, IKKb, at 10 µM
[34] = test system: PKCa; conditions: 48-kinase panel, 33P-ATP radiometric activity, at 10 µM
[35] = biological target: Protein kinase C iota type (Homo sapiens) (UniProt P41743); conditions: 48-kinase panel, 33P-ATP radiometric activity, PKCiota, at 10 µM
[36] = biological target: RAC-alpha serine/threonine-protein kinase (Homo sapiens) (UniProt P31749); conditions: 48-kinase panel, 33P-ATP radiometric activity, AKT1, at 10 µM
[37] = test system: MEKK2; conditions: 48-kinase panel, 33P-ATP radiometric activity, at 10 µM
[38] = test system: PKCeta; conditions: 48-kinase panel, 33P-ATP radiometric activity, at 10 µM
[39] = test system: JNK1; conditions: 48-kinase panel, 33P-ATP radiometric activity, at 10 µM
[40] = biological target: RAC-beta serine/threonine-protein kinase (Homo sapiens) (UniProt P31751); conditions: 48-kinase panel, 33P-ATP radiometric activity, AKT2, at 10 µM
Chain of RAC-beta serine/threonine-protein kinase (Homo sapiens) (P31751 whole entry, looked up): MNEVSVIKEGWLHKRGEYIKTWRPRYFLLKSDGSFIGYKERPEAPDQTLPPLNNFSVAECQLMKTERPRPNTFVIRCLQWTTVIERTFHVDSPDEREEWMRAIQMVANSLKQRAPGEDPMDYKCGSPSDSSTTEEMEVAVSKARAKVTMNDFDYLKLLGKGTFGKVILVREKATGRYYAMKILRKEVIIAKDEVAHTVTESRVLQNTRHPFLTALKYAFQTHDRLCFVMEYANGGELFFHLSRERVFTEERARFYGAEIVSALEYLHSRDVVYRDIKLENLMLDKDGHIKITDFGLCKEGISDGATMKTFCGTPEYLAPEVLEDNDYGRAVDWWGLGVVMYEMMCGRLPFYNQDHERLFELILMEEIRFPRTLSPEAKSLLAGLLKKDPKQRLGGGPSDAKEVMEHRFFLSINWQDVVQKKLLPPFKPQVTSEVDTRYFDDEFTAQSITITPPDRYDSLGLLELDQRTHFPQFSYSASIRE

[41] = test system: P38d; conditions: 48-kinase panel, 33P-ATP radiometric activity, at 10 µM
[42] = test system: MLK3; conditions: 48-kinase panel, 33P-ATP radiometric activity, at 10 µM
[43] = biological target: Serine/threonine-protein kinase D3 (Homo sapiens) (UniProt O94806); conditions: 48-kinase panel, 33P-ATP radiometric activity, PKCnu, at 10 µM
[44] = biological target: Ribosomal protein S6 kinase beta-1 (Homo sapiens) (UniProt P23443); conditions: 48-kinase panel, 33P-ATP radiometric activity, p70S6K, at 10 µM
[45] = test system: MEKK3; conditions: 48-kinase panel, 33P-ATP radiometric activity, at 10 µM
[46] = biological target: Mitogen-activated protein kinase 10 (Homo sapiens) (UniProt P53779); conditions: 48-kinase panel, 33P-ATP radiometric activity, JNK3, at 10 µM

- enzyme activity [1]: 104% (inactive)
- enzyme activity [2]: 105% (inactive)
- enzyme activity [3]: 97% (inactive)
- enzyme activity [4]: 108% (inactive)
- enzyme activity [5]: 100% (inactive)
- enzyme activity [6]: 108% (inactive)
- enzyme activity [7]: 102% (inactive)
- enzyme activity [8]: 106% (inactive)
- enzyme activity [9]: 108% (inactive)
- enzyme activity [10]: 106% (inactive)
- enzyme activity [11]: 102% (inactive)
- enzyme activity [12]: 98.7% (inactive)
- enzyme activity [13]: 96.3% (inactive)
- enzyme activity [14]: 104% (inactive)
- enzyme activity [15]: 100% (inactive)
- enzyme activity [16]: 98.5% (inactive)
- enzyme activity [17]: 100% (inactive)
- enzyme activity ([18]; CDK2/cyclin A): 95.5% (inactive)
- enzyme activity ([18]; CDK2/cyclin E): 113% (inactive)
- enzyme activity [19]: 103% (inactive)
- enzyme activity [20]: 103% (inactive)
- enzyme activity [21]: 91.3% (inactive)
- enzyme activity [22]: 95.4% (inactive)
- enzyme activity [23]: 100% (inactive)
- enzyme activity [24]: 105% (inactive)
- enzyme activity ([25]; CDK1/cyclin A): 106% (inactive)
- enzyme activity ([25]; CDK1/cyclin B): 103% (inactive)
- enzyme activity [26]: 112% (inactive)
- enzyme activity [27]: 101% (inactive)
- enzyme activity [28]: 97.3% (inactive)
- enzyme activity [29]: 95.7% (inactive)
- enzyme activity [30]: 98.8% (inactive)
- enzyme activity [31]: 104% (inactive)
- enzyme activity [32]: 98% (inactive)
- enzyme activity [33]: 107% (inactive)
- enzyme activity [34]: 99.6% (inactive)
- enzyme activity [35]: 103% (inactive)
- enzyme activity [36]: 104% (inactive)
- enzyme activity [37]: 102% (inactive)
- enzyme activity [38]: 107% (inactive)
- enzyme activity [39]: 101% (inactive)
- enzyme activity [40]: 107% (inactive)
- enzyme activity [41]: 98.3% (inactive)
- enzyme activity [42]: 101% (inactive)
- enzyme activity [43]: 105% (inactive)
- enzyme activity [44]: 104% (inactive)
- enzyme activity [45]: 99.6% (inactive)
- enzyme activity [46]: 102% (inactive)
SMILES: CN(C(=O)CNC(=O)/C=C/c1cccc(Cl)c1)C1CCS(=O)(=O)CC1
